Measurements taken from patent publication US20050148553A1, “Use of tigecycline, alone, or in combination with rifampin to treat osteomyelitis and/or septic arthritis” (priority 2003, published 2005).

Test: Whole body autoradiography after 30-minute 3 mg/kg IV infusion of [^14C]-tigecycline
Format: in vivo, Sprague-Dawley rats
Experimental: Male Sprague-Dawley and Long-Evans rats were obtained from Charles River Breeding Laboratories, Raleigh, N.C., and were quarantined for at least one week prior to the start of the study. […] The dosing solution was diluted and radioassayed directly in Ultima Gold scintillation counting cocktail (Packard Inc.). […] All pumps were calibrated prior to the administration of the compound. Rats were anesthetized with isoflurane prior to cardiac puncture exsanguination at the prescribed times after dosing. […] Control whole blood was collected from male Sprague-Dawley rats into tubes containing sodium heparin. Pooled blood was used to prepare the calibration standards and quality control samples. The standards were used to construct the standard curve for the quantification of radiolabeled drug distribution in tissues of whole blood cryosections. The quality controls, which were embedded in the same CMC block with each rat, were used for assessing intra- and inter-section variation in the thickness of rat whole-body cryosections. […] Immediately following euthanasia, each rat was totally immersed in a bath of hexane and dry ice (−75° C.) until frozen. Each carcass was dried and stored at −30° C. until embedded. […] Each frozen rat was sagitally sectioned at −20° C. A sufficient number of sections were collected to ensure sampling of all tissues of interest. The sections were dehydrated overnight in a cryochamber and then rapidly transferred to a dessicator containing CaSO4 to prevent condensation of atmospheric moisture while equilibrating to room temperature. The sections were mounted on cardboard and labeled with [^14C]-labeled black ink with a unique identification number. […] A small piece of Scotch tape was placed over the dried radioactive ink to prevent the contamination of the storage phosphor screens. Phosphor imaging plates, BAS-SR 2025 (Fuji Photo Film Co., Japan) were exposed to bright visible light for 20 minutes using an IP eraser (Raytest, USA Inc., New Castle, Del.) to remove background radiation. Sections and calibration blood standards were concurrently placed in direct contact with Ips and exposed for 7 days. All sections were stored at room temperature in a lead shielding box to minimize background levels. Phosphor images were generated using a Fujifilm BAS-5000 Bio-Imaging Analyzer and quantitated by MCID M2 Software, version 3.2 (Imaging Research Inc., St. Catherines, Ontario, Canada). The STDs and QCs were analyzed using the circular sampling tool in the MCID software program. Areas of interest in whole-body sections were manually outlined with the regional sampling tool to generate count data. Radioactive concentrations in select tissues were determined by digital analysis of the resulting autoradiograms on the basis of a calibration curve. […] The linear regression curve was then used to determine the concentration of unknown radioactivity of study samples. […] Blood samples were combusted using a Model 307 sample oxidizer (Packard Instrument Company). […] Research Triangle Park, N.C.), which applies a model-independent approach and standard procedures as described in Gibaldi and Perrier. Gibaldi, Pharmacokinetics, 1982. […] For IV infusion dosing, C30 min was the concentration at 30 minutes, the first sampling time point. The maximum plasma concentration (Cmax) and the corresponding time of peak concentration following IV administration were obtained directly by numerical inspection from the individual concentration-time data. The terminal half-life was calculated by the ratio of ln2/λz where λz is derived from the terminal slope of the concentration time curve. The area under the plasma concentration versus time curve from zero to infinity was calculated using the trapezoidal rule, where Clast is the last measurable plasma concentration. […]

## CN(C)c1cc(NC(=O)CNC(C)(C)C)c(O)c2c1C[C@H]1C[C@H]3[C@H](N(C)C)C(O)=C(C(N)=O)C(=O)[C@@]3(O)C(O)=C1C2=O [[^14C]-Tigecycline]
Adrenal Gland
  AUC: 29515 Ng eq hr/g
Adrenal Gland, 0.5 Hrs
  Mean concentration of total radioactivity: 3580 ng equiv./g
  Tissue:Plasma Ratio: 4.00
Adrenal Gland, 8.5 Hrs
  Mean concentration of total radioactivity: 941 ng equiv./g
  Tissue:Plasma Ratio: 1.87
Adrenal Gland, 24 Hrs
  Mean concentration of total radioactivity: 68.9 ng equiv./g
  Tissue:Plasma Ratio: 4.67
Adrenal Gland, 72 Hrs
  Mean concentration of total radioactivity: 19.3 ng equiv./g
  Tissue:Plasma Ratio: 4.47
Adrenal Gland, 168 Hrs
  Mean concentration of total radioactivity: <5.10 ng equiv./g
Adrenal Gland, 336 Hrs
  Mean concentration of total radioactivity: <5.10 ng equiv./g
Adrenal Gland, first AUC column
  AUC: 29153 Ng eq hr/g
Blood
  AUC: 1261 Ng eq hr/g
Blood, 0.5 Hrs
  Tissue:Plasma Ratio: 1.43
Blood, 8.5 Hrs
  Tissue:Plasma Ratio: 1.24
Blood, 24 Hrs
  Tissue:Plasma Ratio: 3.01
Blood, 72 Hrs
  Tissue:Plasma Ratio: 2.74
Blood, first AUC column
  AUC: 12063 Ng eq hr/g
Bone
  AUC: 794704 Ng eq hr/g
Bone Marrow
  AUC: 47468 Ng eq hr/g
Bone Marrow, 0.5 Hrs
  Mean concentration of total radioactivity: 4376 ng equiv./g
  Tissue:Plasma Ratio: 4.89
Bone Marrow, 8.5 Hrs
  Mean concentration of total radioactivity: 1562 ng equiv./g
  Tissue:Plasma Ratio: 3.10
Bone Marrow, 24 Hrs
  Mean concentration of total radioactivity: 291 ng equiv./g
  Tissue:Plasma Ratio: 19.7
Bone Marrow, 72 Hrs
  Mean concentration of total radioactivity: 22.5 ng equiv./g
  Tissue:Plasma Ratio: 5.21
Bone Marrow, 168 Hrs
  Mean concentration of total radioactivity: <5.10 ng equiv./g
Bone Marrow, 336 Hrs
  Mean concentration of total radioactivity: <5.10 ng equiv./g
Bone Marrow, first AUC column
  AUC: 47116 Ng eq hr/g
Bone, 0.5 Hrs
  Mean concentration of total radioactivity: 3312 ng equiv./g
  Tissue:Plasma Ratio: 3.70
Bone, 8.5 Hrs
  Mean concentration of total radioactivity: 3794 ng equiv./g
  Tissue:Plasma Ratio: 7.53
Bone, 24 Hrs
  Mean concentration of total radioactivity: 2711 ng equiv./g
  Tissue:Plasma Ratio: 184
Bone, 72 Hrs
  Mean concentration of total radioactivity: 1787 ng equiv./g
  Tissue:Plasma Ratio: 414
Bone, 168 Hrs
  Mean concentration of total radioactivity: 1526 ng equiv./g
Bone, 336 Hrs
  Mean concentration of total radioactivity: 720 ng equiv./g
Bone, first AUC column
  AUC: 569498 Ng eq hr/g
Brain
  AUC: 2865 Ng eq hr/g
  Cmax: 54 Ng equiv/g
Brain, 0.5 Hrs
  Mean concentration of total radioactivity: 35.8 ng equiv./g
  Tissue:Plasma Ratio: 0.040
Brain, 8.5 Hrs
  Mean concentration of total radioactivity: 54.3 ng equiv./g
  Tissue:Plasma Ratio: 0.108
Brain, 24 Hrs
  Mean concentration of total radioactivity: 35.8 ng equiv./g
  Tissue:Plasma Ratio: 2.42
Brain, 72 Hrs
  Mean concentration of total radioactivity: 13.3 ng equiv./g
  Tissue:Plasma Ratio: 3.10
Brain, 168 Hrs
  Mean concentration of total radioactivity: <5.10 ng equiv./g
Brain, 336 Hrs
  Mean concentration of total radioactivity: <5.10 ng equiv./g
Brain, first AUC column
  AUC: 2256 Ng eq hr/g
Eyes
  AUC: 3221 Ng eq hr/g
  Cmax: 108 Ng equiv/g
Eyes, 0.5 Hrs
  Mean concentration of total radioactivity: 106 ng equiv./g
  Tissue:Plasma Ratio: 0.118
Eyes, 8.5 Hrs
  Mean concentration of total radioactivity: 108 ng equiv./g
  Tissue:Plasma Ratio: 0.215
Eyes, 24 Hrs
  Mean concentration of total radioactivity: 36.6 ng equiv./g
  Tissue:Plasma Ratio: 2.46
Eyes, 72 Hrs
  Mean concentration of total radioactivity: 6.76 ng equiv./g
  Tissue:Plasma Ratio: 1.57
Eyes, 168 Hrs
  Mean concentration of total radioactivity: <5.10 ng equiv./g
Eyes, 336 Hrs
  Mean concentration of total radioactivity: <5.10 ng equiv./g
Eyes, first AUC column
  AUC: 3060 Ng eq hr/g
Fat
  AUC: 3500 Ng eq hr/g
Fat, 0.5 Hrs
  Mean concentration of total radioactivity: 450 ng equiv./g
  Tissue:Plasma Ratio: 0.50
Fat, 8.5 Hrs
  Mean concentration of total radioactivity: 144 ng equiv./g
  Tissue:Plasma Ratio: 0.287
Fat, 24 Hrs
  Mean concentration of total radioactivity: <5.1 ng equiv./g
Fat, 72 Hrs
  Mean concentration of total radioactivity: <5.10 ng equiv./g
Fat, 168 Hrs
  Mean concentration of total radioactivity: <5.10 ng equiv./g
Fat, 336 Hrs
  Mean concentration of total radioactivity: <5.10 ng equiv./g
Fat, first AUC column
  AUC: 2489 Ng eq hr/g
Heart
  AUC: 40179 Ng eq hr/g
Heart, 0.5 Hrs
  Mean concentration of total radioactivity: 5657 ng equiv./g
  Tissue:Plasma Ratio: 6.32
Heart, 8.5 Hrs
  Mean concentration of total radioactivity: 1138 ng equiv./g
  Tissue:Plasma Ratio: 2.26
Heart, 24 Hrs
  Mean concentration of total radioactivity: 69.9 ng equiv./g
  Tissue:Plasma Ratio: 4.74
Heart, 72 Hrs
  Mean concentration of total radioactivity: 6.98 ng equiv./g
  Tissue:Plasma Ratio: 1.62
Heart, 168 Hrs
  Mean concentration of total radioactivity: <5.10 ng equiv./g
Heart, 336 Hrs
  Mean concentration of total radioactivity: <5.10 ng equiv./g
Heart, first AUC column
  AUC: 40083 Ng eq hr/g
Kidney
  AUC: 70704 Ng eq hr/g
  Cmax: 7601 Ng equiv/g
Kidney, 0.5 Hrs
  Mean concentration of total radioactivity: 7601 ng equiv./g
  Tissue:Plasma Ratio: 8.49
Kidney, 8.5 Hrs
  Mean concentration of total radioactivity: 1725 ng equiv./g
  Tissue:Plasma Ratio: 3.42
Kidney, 24 Hrs
  Mean concentration of total radioactivity: 140 ng equiv./g
  Tissue:Plasma Ratio: 9.49
Kidney, 72 Hrs
  Mean concentration of total radioactivity: 47.9 ng equiv./g
  Tissue:Plasma Ratio: 11.1
Kidney, 168 Hrs
  Mean concentration of total radioactivity: 41.3 ng equiv./g
Kidney, 336 Hrs
  Mean concentration of total radioactivity: 13.9 ng equiv./g
Kidney, first AUC column
  AUC: 68333 Ng eq hr/g
Liver
  AUC: 53527 Ng eq hr/g
  Cmax: 7300 Ng equiv/g
Liver, 0.5 Hrs
  Mean concentration of total radioactivity: 7300 ng equiv./g
  Tissue:Plasma Ratio: 8.16
Liver, 8.5 Hrs
  Mean concentration of total radioactivity: 1192 ng equiv./g
  Tissue:Plasma Ratio: 2.37
